Converted amounts (≈) assume the structure as drawn. Like-named read-outs stand apart in the source and are kept apart here. Residues, ends and D or L forms follow the SMILES beside them.
What was measured:
[1] = tested on: K. pneumoniae ATCC 700603; type: cell-based, Klebsiella pneumoniae
From the text: (§1) Bacteria were cultivated in Luria-Bertani (LB) broth.

K. pneumoniae 3026 = type: cell-based, Klebsiella pneumoniae
From the text: as §1

A. baumannii 1337 = type: cell-based, Acinetobacter baumannii
From the text: as §1

A. baumannii 1318 = type: cell-based, Acinetobacter baumannii
From the text: as §1

E. coli ATCC 25922 = type: cell-based, Escherichia coli
From the text: as §1

E. coli S = type: cell-based, Escherichia coli
From the text: as §1

sheep red blood cells = test: Hemolysis assay; details: red cells of sheep, 1 h
Method: To evaluate the hemolysis effects of peptides, red blood hemolysis was performed as described with minimum modifications. Sterile defibrated sheep blood was purchased from Guangzhou Hongquan Biotechnology Co., LTD. Blood cells were adjusted to 2 × 10^9 cells/mL in phosphate-buffered saline (PBS, pH 7.4). In total, 98 μL sheep red blood cell suspension was incubated with 2 μL of peptides at different concentrations ranging from 3.13 to 100 µM. After incubation for 1 h at 37 °C, the cells were centrifuged and the absorbance of the supernatant was measured at 450 nm. The value for “zero hemolysis” was determined using sterile PBS, while 100% hemolysis was established using 1.5% (v/v) Triton X-100. Hemolysis of testing sample was calculated as the percentage of Triton X-100-induced hemolysis.

[2] = tested on: Gram-negative bacterial strains; type: cell-based
From the text: as §1

MRSA ATCC 43300 = type: cell-based, Staphylococcus aureus
From the text: as §1

MRSA 3393 = type: cell-based, Staphylococcus aureus
From the text: as §1

MRSA USA 300 = type: cell-based, Staphylococcus aureus
From the text: as §1

HEK293T cells = test: MTT cytotoxicity assay; type: cell-based, human
Method: (§2) To determine the cytotoxicity of the peptides, we used the MTT (3-(4,5)-dimethylthiahiazo (-z-y1)-3,5-di-phenytetrazoliumromide) dye reduction assay against HEK293T cells. In brief, the 100 μL of cells in 96-well plate were incubated for 24 h at 37 °C, 5% CO2, and then peptide solutions (concentrations ranging from 100 to 0.39 μM) were added and further incubated for 72 h. MTT solution (5 mg/mL) was added and further incubated for 4 h. After incubation, the precipitated MTT formazan crystal was dissolved by addition of dimethyl sulfoxide (DMSO). […]

MTT cytotoxicity assay = type: cell-based, human; details: human; for viability at 72 h, 0.39 µM / viability at 72 h, 0.78 µM / viability at 72 h, 1.57 µM / viability at 72 h, 6.25 µM / viability at 72 h, 12.5 µM / viability at 72 h, 25 µM / viability at 72 h, 50 µM / viability at 72 h, 100 µM / viability at 72 h, 3.13 µM: HEK293T cells
Method: as §2

MRSA = type: cell-based, Staphylococcus aureus
From the text: as §1

[3] = OD450, cytotoxicity (Fig 2a), replicates

MIC Gram- K. p ATCC 700603 [1] | MIC Gram- K. p 3026 (K. pneumoniae 3026) | MIC Gram- A. b 1337 (A. baumannii 1337) | MIC Gram- A. b 1318 (A. baumannii 1318) | MIC Gram- E. coli ATCC 25922 (E. coli ATCC 25922) | MIC Gram- E. coli S (E. coli S) | MIC Gram+ MRSA ATCC 43300 (MRSA ATCC 43300; ATCC 43300) | MIC Gram+ MRSA USA 300 (MRSA USA 300) | MIC Gram+ MRSA 3393 (MRSA 3393; 3393) | SMILES | HC10 (concentration inducing 10% hemolysis) (sheep red blood cells) | toxicity / cytotoxicity against HEK293T cells (in words) (HEK293T cells) | IC50 at 72 h (MTT cytotoxicity assay) | viability at 72 h, 0.39 µM (MTT cytotoxicity assay; [3]) | viability at 72 h, 0.78 µM (MTT cytotoxicity assay; [3]) | viability at 72 h, 1.57 µM (MTT cytotoxicity assay; [3]) | viability at 72 h, 6.25 µM (MTT cytotoxicity assay; [3]) | viability at 72 h, 12.5 µM (MTT cytotoxicity assay; [3]) | viability at 72 h, 25 µM (MTT cytotoxicity assay; [3]) | viability at 72 h, 50 µM (MTT cytotoxicity assay; [3]) | viability at 72 h, 100 µM (MTT cytotoxicity assay; [3]) | other results
25 µM (≈ 40.1 µg/mL) | 12.5 µM (≈ 20 µg/mL) | 12.5 µM (≈ 20 µg/mL) | 12.5 µM (≈ 20 µg/mL) | 12.5 µM (≈ 20 µg/mL) | 6.25 µM (≈ 10 µg/mL) | 1.57 µM (≈ 2.52 µg/mL) | 1.57 µM (≈ 2.52 µg/mL) |  | CC[C@H](C)[C@H](NC(=O)[C@H](CCCNC(=N)N)NC(=O)[C@H](CCCNC(=N)N)NC(=O)[C@H](CC(C)C)NC(=O)[C@H](Cc1ccccc1)NC(=O)[C@H](Cc1ccccc1)NC(=O)[C@H](Cc1ccccc1)NC(=O)[C@@H](N)Cc1ccccc1)C(=O)N[C@@H](Cc1ccccc1)C(=O)N[C@@H](CCCNC(=N)N)C(=O)N[C@@H](CCCNC(=N)N)C(N)=O [F-SHf(R^5)-RR] (H-FFFFLRRIFRR-NH2; N-terminus assumed) | > 100.0 µM | high toxicity | 500 nM | 69.1% | 45.9% | 6.12% | 3.98% | 2.72% | 3.79% | 2.62% | 1.75% | MICs against the tested Gram-negative bacterial strains [2]: 6.25 to 25 µM; MIC Gram+ MRSA ATCC 43300 (MRSA ATCC 43300): 1.57 µM (≈ 2.52 µg/mL); MIC Gram+ MRSA 3393 (MRSA 3393): 1.57 µM (≈ 2.52 µg/mL)
> 100 µM | > 100 µM | > 100 µM | > 100 µM | > 100 µM | > 100 µM | 6.25 µM (≈ 8.76 µg/mL) | 6.25 µM (≈ 8.76 µg/mL) | 50 µM (≈ 70.1 µg/mL) | CC[C@H](C)[C@H](NC(=O)[C@H](CCCNC(=N)N)NC(=O)[C@H](CO)NC(=O)[C@H](CC(C)C)NC(=O)[C@H](Cc1ccccc1)NC(=O)[C@H](Cc1ccccc1)NC(=O)[C@H](Cc1ccccc1)NC(=O)[C@H](Cc1ccc(O)cc1)NC(=O)[C@@H](N)Cc1ccc(O)cc1)C(=O)N[C@@H](Cc1ccccc1)C(N)=O [YY-SHf] (H-YYFFFLSRIF-NH2; N-terminus assumed) |  |  |  |  |  |  |  |  |  |  |  | MICs against MRSA (MRSA): 3.13 to 50 µM

Continued, molecule first:

SMILES | MIC Gram- K. p ATCC 700603 [1] | MIC Gram- K. p 3026 (K. pneumoniae 3026) | MIC Gram- A. b 1337 (A. baumannii 1337) | MIC Gram- A. b 1318 (A. baumannii 1318) | MIC Gram- E. coli ATCC 25922 (E. coli ATCC 25922) | MIC Gram- E. coli S (E. coli S) | MIC Gram+ MRSA ATCC 43300 (MRSA ATCC 43300; ATCC 43300) | MIC Gram+ MRSA USA 300 (MRSA USA 300) | MIC Gram+ MRSA 3393 (MRSA 3393; 3393) | HC10 (concentration inducing 10% hemolysis) (sheep red blood cells) | toxicity / cytotoxicity against HEK293T cells (in words) (HEK293T cells) | IC50 at 72 h (MTT cytotoxicity assay) | viability at 72 h, 0.39 µM (MTT cytotoxicity assay; [3]) | viability at 72 h, 0.78 µM (MTT cytotoxicity assay; [3]) | viability at 72 h, 1.57 µM (MTT cytotoxicity assay; [3]) | viability at 72 h, 6.25 µM (MTT cytotoxicity assay; [3]) | viability at 72 h, 12.5 µM (MTT cytotoxicity assay; [3]) | viability at 72 h, 25 µM (MTT cytotoxicity assay; [3]) | viability at 72 h, 50 µM (MTT cytotoxicity assay; [3]) | viability at 72 h, 100 µM (MTT cytotoxicity assay; [3]) | other results
CC[C@H](C)[C@H](NC(=O)[C@H](CCCNC(=N)N)NC(=O)[C@H](CCCNC(=N)N)NC(=O)[C@H](CC(C)C)NC(=O)[C@H](Cc1ccccc1)NC(=O)[C@H](Cc1ccccc1)NC(=O)[C@H](Cc1ccccc1)NC(=O)[C@@H](N)Cc1ccccc1)C(=O)N[C@@H](Cc1ccccc1)C(=O)N[C@@H](CCCNC(=N)N)C(N)=O [F-SHf(R^5)-R] (H-FFFFLRRIFR-NH2; N-terminus assumed) | 12.5 µM (≈ 18.1 µg/mL) | 25 µM (≈ 36.2 µg/mL) | 12.5 µM (≈ 18.1 µg/mL) | 12.5 µM (≈ 18.1 µg/mL) | 6.25 µM (≈ 9.05 µg/mL) | 12.5 µM (≈ 18.1 µg/mL) | 1.57 µM (≈ 2.27 µg/mL) | 1.57 µM (≈ 2.27 µg/mL) |  | 36.5 µM | high toxicity | 200 nM | 35.2% | 26.2% | 12.3% | 4.46% | 3.13% | 3.84% | 2.63% | 1.58% | MICs against the tested Gram-negative bacterial strains [2]: 6.25 to 25 µM; MIC Gram+ MRSA ATCC 43300 (MRSA ATCC 43300): 1.57 µM (≈ 2.27 µg/mL); MIC Gram+ MRSA 3393 (MRSA 3393): 1.57 µM (≈ 2.27 µg/mL); viability at 72 h, 3.13 µM (MTT cytotoxicity assay; [3]): 9.86%
CC[C@H](C)[C@H](NC(=O)[C@H](CCCNC(=N)N)NC(=O)[C@H](CCCNC(=N)N)NC(=O)[C@H](CC(C)C)NC(=O)[C@H](Cc1ccccc1)NC(=O)[C@H](Cc1ccccc1)NC(=O)[C@H](Cc1ccccc1)NC(=O)[C@@H](N)Cc1ccccc1)C(=O)N[C@@H](Cc1ccccc1)C(N)=O [F-SHf(R^5)] (H-FFFFLRRIF-NH2; N-terminus assumed) | > 100 µM | 100 µM (≈ 129 µg/mL) | 25 µM (≈ 32.3 µg/mL) | 25 µM (≈ 32.3 µg/mL) | 12.5 µM (≈ 16.1 µg/mL) | 50 µM (≈ 64.6 µg/mL) | 1.57 µM (≈ 2.03 µg/mL) | 3.13 µM (≈ 4.04 µg/mL) | 1.57 µM (≈ 2.03 µg/mL) | 7.9 µM | high toxicity | 4600 nM | 102% | 89.7% | 89.3% | 40.1% | 20.8% | 12.3% | 16.4% | 17.1% | viability at 72 h, 3.13 µM (MTT cytotoxicity assay; [3]): 78.6%
CC[C@H](C)[C@H](NC(=O)[C@H](CCCNC(=N)N)NC(=O)[C@H](CO)NC(=O)[C@H](CC(C)C)NC(=O)[C@H](Cc1ccccc1)NC(=O)[C@H](Cc1ccccc1)NC(=O)[C@H](Cc1ccccc1)NC(=O)[C@H](Cc1ccccc1)NC(=O)[C@@H](N)Cc1ccccc1)C(=O)N[C@@H](Cc1ccccc1)C(N)=O [FF-SHf] (H-FFFFFLSRIF-NH2; N-terminus assumed) | > 100 µM | > 100 µM | > 100 µM | > 100 µM | > 100 µM | > 100 µM | 50 µM (≈ 68.5 µg/mL) | 6.25 µM (≈ 8.56 µg/mL) | 3.13 µM (≈ 4.29 µg/mL) |  |  |  |  |  |  |  |  |  |  |  | MICs against MRSA (MRSA): 3.13 to 50 µM
CC[C@H](C)[C@H](NC(=O)[C@H](CCCNC(=N)N)NC(=O)[C@H](CCCNC(=N)N)NC(=O)[C@H](CC(C)C)NC(=O)[C@H](Cc1ccccc1)NC(=O)[C@H](CCCNC(=N)N)NC(=O)[C@@H](N)CCCNC(=N)N)C(=O)N[C@@H](Cc1ccccc1)C(=O)N[C@@H](Cc1ccccc1)C(=O)N[C@@H](Cc1ccccc1)C(=O)N[C@@H](Cc1ccccc1)C(N)=O [HT3] (H-RRFLRRIFFFF-NH2; N-terminus assumed) | 6.25 µM (≈ 10 µg/mL) | 6.25 µM (≈ 10 µg/mL) | 6.25 µM (≈ 10 µg/mL) | 6.25 µM (≈ 10 µg/mL) | 6.25 µM (≈ 10 µg/mL) | 25 µM (≈ 40.1 µg/mL) | 1.57 µM (≈ 2.52 µg/mL) | 3.13 µM (≈ 5.02 µg/mL) | 3.13 µM (≈ 5.02 µg/mL) | > 100.0 µM |  | 49000 nM | 94% | 98.7% | 96.4% | 94.9% | 99.5% | 91.4% | 59.2% | 24.2% | MICs against Gram-negative bacterial strains, such as A. baumannii and Klebsiella pneumoniae [2]: 6.25 µM; MICs against Gram-positive bacterial strains (MRSA): 1.57 to 3.13 µM; viability at 72 h, 0.78 µM (MTT cytotoxicity assay; HEK293T, 0.78 µM, read-out: OD450, cytotoxicity (Fig 2a), replicates): 95.8%; viability at 72 h, 12.5 µM (MTT cytotoxicity assay; HEK293T, 12.5 µM, read-out: OD450, cytotoxicity (Fig 2a), replicates): 94.4%; viability at 72 h, 3.13 µM (MTT cytotoxicity assay; [3]): 97.8%
